Values belong to the compound of their own block, whether it stands above or below them. Calls of active or inactive are those of the source.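 Rule for the calls: active = mean IC50 below 20 µM in each of the two panels, so potent in both; inactive = the rest.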
Target: Neuropilin-1 (Homo sapiens) (UniProt O14786)
Assay: NRP-1 b1b2 CendR peptide binding inhibitors, dose response, biochemical, FP and AlphaScreen panel (AID 651650)
Details: NRP-1 b1b2 / RPARPAR peptide binding, FP or AlphaScreen
[1] = AlphaScreen, run 1, individual panel run IC50
[2] = FP, run 1, individual panel run IC50
[3] = FP, run 2, individual panel run IC50

Neuropilin-1 (Homo sapiens), sequence (O14786 whole entry, looked up): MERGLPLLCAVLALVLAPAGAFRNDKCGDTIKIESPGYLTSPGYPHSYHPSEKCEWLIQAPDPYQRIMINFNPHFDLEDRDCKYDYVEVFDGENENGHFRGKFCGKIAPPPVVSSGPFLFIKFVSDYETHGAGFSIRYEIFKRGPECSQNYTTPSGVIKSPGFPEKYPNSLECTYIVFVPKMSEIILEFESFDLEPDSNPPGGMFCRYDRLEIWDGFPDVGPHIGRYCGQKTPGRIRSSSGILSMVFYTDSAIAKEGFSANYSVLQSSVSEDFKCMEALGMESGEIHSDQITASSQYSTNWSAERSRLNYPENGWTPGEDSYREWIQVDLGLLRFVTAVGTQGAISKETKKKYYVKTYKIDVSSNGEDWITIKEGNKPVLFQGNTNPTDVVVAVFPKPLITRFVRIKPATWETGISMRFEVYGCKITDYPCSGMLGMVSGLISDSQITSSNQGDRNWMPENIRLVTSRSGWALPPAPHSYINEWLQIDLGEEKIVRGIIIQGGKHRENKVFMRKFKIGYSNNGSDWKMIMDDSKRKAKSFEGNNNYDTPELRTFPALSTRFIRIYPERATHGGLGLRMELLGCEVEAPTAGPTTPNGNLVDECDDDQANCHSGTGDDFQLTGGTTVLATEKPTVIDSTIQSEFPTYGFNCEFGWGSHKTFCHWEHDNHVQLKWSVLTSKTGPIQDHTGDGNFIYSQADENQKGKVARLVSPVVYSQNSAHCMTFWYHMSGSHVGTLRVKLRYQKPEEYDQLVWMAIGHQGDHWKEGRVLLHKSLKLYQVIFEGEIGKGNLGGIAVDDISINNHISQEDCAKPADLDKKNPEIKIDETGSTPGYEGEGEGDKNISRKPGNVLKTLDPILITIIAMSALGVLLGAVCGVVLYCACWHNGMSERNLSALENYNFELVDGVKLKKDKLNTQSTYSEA

Structure (SMILES): c1ccc2c(c1)CCCN2Cc1nnnn1CC1CCCO1 (stereo not given)
IC50 (AlphaScreen, mean of runs): inactive
IC50 [1]: 25.8 µM
IC50 (FP, mean of runs): inactive
IC50 [2]: 33.9 µM
IC50 [3]: > 95 µM

Structure (SMILES): O=C(Nc1cccc(S(=O)(=O)N2CCCCC2)c1)c1ccc([N+](=O)[O-])o1
IC50 (AlphaScreen, mean of runs): > 100 µM (inactive)
IC50 [1]: > 100 µM
IC50 (FP, mean of runs): > 95 µM (inactive)
IC50 [2]: > 95 µM
IC50 [3]: > 95 µM

Structure (SMILES): CC(=O)NC(c1cccc(F)c1)c1nc(-c2cccc(C(F)(F)F)c2)cs1 (stereo not given)
IC50 (AlphaScreen, mean of runs): > 100 µM (inactive)
IC50 [1]: > 100 µM
IC50 (FP, mean of runs): > 95 µM (inactive)
IC50 [2]: > 95 µM
IC50 [3]: > 95 µM

Structure (SMILES): NC(=O)C1CCN(c2nc(-c3ccc4occc(=O)c4c3)cs2)CC1
IC50 (AlphaScreen, mean of runs): > 100 µM (inactive)
IC50 [1]: > 100 µM
IC50 (FP, mean of runs): > 95 µM (inactive)
IC50 [2]: > 95 µM
IC50 [3]: > 95 µM

Structure (SMILES): CCOc1ccc(-n2c(Cc3cc(=O)[nH]c(=O)[nH]3)nnc2SC(C)C)cc1
IC50 (AlphaScreen, mean of runs): > 100 µM (inactive)
IC50 [1]: > 100 µM
IC50 (FP, mean of runs): > 95 µM (inactive)
IC50 [2]: > 95 µM
IC50 [3]: > 95 µM

Structure (SMILES): COC(=O)CCCC1=CC2=CC(=O)C(C)(OC(=O)c3cccs3)C(=O)C2=CN1CCCCO (stereo not given)
IC50 (AlphaScreen, mean of runs): > 100 µM (inactive)
IC50 [1]: > 100 µM
IC50 (FP, mean of runs): > 95 µM (inactive)
IC50 [2]: > 95 µM
IC50 [3]: > 95 µM

Structure (SMILES): CC(=O)NCCNc1nc(NC(C)C)nc2ccsc12
IC50 (AlphaScreen, mean of runs): > 100 µM (inactive)
IC50 [1]: > 100 µM
IC50 (FP, mean of runs): > 95 µM (inactive)
IC50 [2]: > 95 µM
IC50 [3]: > 95 µM

Structure (SMILES): O=C(Nc1ccccc1N1CCOCC1)c1ccc(N2CCCC2=O)cc1
IC50 (AlphaScreen, mean of runs): > 100 µM (inactive)
IC50 [1]: > 100 µM
IC50 (FP, mean of runs): > 95 µM (inactive)
IC50 [2]: > 95 µM
IC50 [3]: > 95 µM

Structure (SMILES): Cc1ccc(NC(=O)COc2ncnc3c(Cl)cc(Cl)cc23)cc1[N+](=O)[O-]
IC50 (AlphaScreen, mean of runs): > 100 µM (inactive)
IC50 [1]: > 100 µM
IC50 (FP, mean of runs): > 95 µM (inactive)
IC50 [2]: > 95 µM
IC50 [3]: > 95 µM

Structure (SMILES): Cc1ccccc1/C=C/c1nc2ccccc2c(=O)n1CCc1ccccc1
IC50 (AlphaScreen, mean of runs): > 100 µM (inactive)
IC50 [1]: > 100 µM
IC50 (FP, mean of runs): > 95 µM (inactive)
IC50 [2]: > 95 µM
IC50 [3]: > 95 µM

Structure (SMILES): O=C1CCCN1CCCNC(=S)Nc1ccc(Cl)cc1Cl
IC50 (AlphaScreen, mean of runs): > 100 µM (inactive)
IC50 [1]: > 100 µM
IC50 (FP, mean of runs): > 95 µM (inactive)
IC50 [2]: > 95 µM
IC50 [3]: > 95 µM

Results, then the compound that gave them:

IC50 (AlphaScreen, mean of runs): > 100 µM (inactive)
IC50 [1]: > 100 µM
IC50 (FP, mean of runs): > 95 µM (inactive)
IC50 [2]: > 95 µM
IC50 [3]: > 95 µM
Structure (SMILES): COc1ccc(C(=O)COC(=O)C(CCSC)NS(=O)(=O)c2ccc(Cl)cc2)cc1 (stereo not given)

IC50 (AlphaScreen, mean of runs): > 100 µM (inactive)
IC50 [1]: > 100 µM
IC50 (FP, mean of runs): > 95 µM (inactive)
IC50 [2]: > 95 µM
IC50 [3]: > 95 µM
Structure (SMILES): CCOC(=O)c1ccc(NC(=O)CN2CCc3ccccc3C2)cc1

IC50 (AlphaScreen, mean of runs): > 100 µM (inactive)
IC50 [1]: > 100 µM
IC50 (FP, mean of runs): > 95 µM (inactive)
IC50 [2]: > 95 µM
IC50 [3]: > 95 µM
Structure (SMILES): COc1ccc(/C=N/NC(=O)c2nn(-c3ccc(Cl)cc3)c(=O)c3c(N)scc23)cc1

IC50 (AlphaScreen, mean of runs): > 100 µM (inactive)
IC50 [1]: > 100 µM
IC50 (FP, mean of runs): > 95 µM (inactive)
IC50 [2]: > 95 µM
IC50 [3]: > 95 µM
Structure (SMILES): COc1ccc(N(CC(=O)NCc2ccco2)C(=O)CCC(=O)Nc2ccccn2)cc1

IC50 (AlphaScreen, mean of runs): > 100 µM (inactive)
IC50 [1]: > 100 µM
IC50 (FP, mean of runs): > 95 µM (inactive)
IC50 [2]: > 95 µM
IC50 [3]: > 95 µM
Structure (SMILES): CC(=O)c1ccc(OCC(=O)Nc2nnc(C3CC3)s2)cc1

IC50 (AlphaScreen, mean of runs): > 100 µM (inactive)
IC50 [1]: > 100 µM
IC50 (FP, mean of runs): > 95 µM (inactive)
IC50 [2]: > 95 µM
IC50 [3]: > 95 µM
Structure (SMILES): COC(=O)c1ccn(C(=O)c2ccc(Cl)cc2)n1

IC50 (AlphaScreen, mean of runs): > 100 µM (inactive)
IC50 [1]: > 100 µM
IC50 (FP, mean of runs): > 95 µM (inactive)
IC50 [2]: > 95 µM
IC50 [3]: > 95 µM
Structure (SMILES): COc1ccc(C(=O)N2CCC(C(=O)NCc3ccccn3)CC2)cc1

IC50 (AlphaScreen, mean of runs): inactive
IC50 [1]: 73.1 µM
IC50 (FP, mean of runs): > 95 µM (inactive)
IC50 [2]: > 95 µM
IC50 [3]: > 95 µM
Structure (SMILES): Cc1nc(Nc2ccc(S(N)(=O)=O)cc2)oc1C

IC50 (AlphaScreen, mean of runs): > 100 µM (inactive)
IC50 [1]: > 100 µM
IC50 (FP, mean of runs): > 95 µM (inactive)
IC50 [2]: > 95 µM
IC50 [3]: > 95 µM
Structure (SMILES): COc1ccc(C(O)c2nc(-c3ccc4ccccc4c3)cs2)cc1 (stereo not given)

IC50 (AlphaScreen, mean of runs): inactive
IC50 [1]: 38.9 µM
IC50 (FP, mean of runs): > 95 µM (inactive)
IC50 [2]: > 95 µM
IC50 [3]: > 95 µM
Structure (SMILES): COc1ccc(Cn2c3ccc(OC)cc3c3nc4ccccc4nc32)cc1

IC50 (AlphaScreen, mean of runs): 17.9 µM
IC50 [1]: 17.9 µM
IC50 (FP, mean of runs): > 95 µM (inactive)
IC50 [2]: > 95 µM
IC50 [3]: > 95 µM
Structure (SMILES): CC(=O)Nc1ccc(NC(=O)C2CC(=O)N(c3ccc(Cl)cc3)C2)cc1 (stereo not given)

— PubChem BioAssay AID651650 (Sanford-Burnham Center for Chemical Genomics, 2012)
